# Measured values reported in US10934274B2, “Quinoline derivatives as TAM RTK inhibitors” (Qurient Co., Ltd., priority 2015, dated 2021).
# pKd: −log10 of the molar value.
# Tests used:
# [1] = biological target: T1, TYRO3 (Homo sapiens, UniProt Q06418); assay: LanthaScreen Eu kinase binding assay, TYRO3; settings: Tracer 236
# T1 construct: purchased Life Technologies
# T1 sequence (Q06418 41-890): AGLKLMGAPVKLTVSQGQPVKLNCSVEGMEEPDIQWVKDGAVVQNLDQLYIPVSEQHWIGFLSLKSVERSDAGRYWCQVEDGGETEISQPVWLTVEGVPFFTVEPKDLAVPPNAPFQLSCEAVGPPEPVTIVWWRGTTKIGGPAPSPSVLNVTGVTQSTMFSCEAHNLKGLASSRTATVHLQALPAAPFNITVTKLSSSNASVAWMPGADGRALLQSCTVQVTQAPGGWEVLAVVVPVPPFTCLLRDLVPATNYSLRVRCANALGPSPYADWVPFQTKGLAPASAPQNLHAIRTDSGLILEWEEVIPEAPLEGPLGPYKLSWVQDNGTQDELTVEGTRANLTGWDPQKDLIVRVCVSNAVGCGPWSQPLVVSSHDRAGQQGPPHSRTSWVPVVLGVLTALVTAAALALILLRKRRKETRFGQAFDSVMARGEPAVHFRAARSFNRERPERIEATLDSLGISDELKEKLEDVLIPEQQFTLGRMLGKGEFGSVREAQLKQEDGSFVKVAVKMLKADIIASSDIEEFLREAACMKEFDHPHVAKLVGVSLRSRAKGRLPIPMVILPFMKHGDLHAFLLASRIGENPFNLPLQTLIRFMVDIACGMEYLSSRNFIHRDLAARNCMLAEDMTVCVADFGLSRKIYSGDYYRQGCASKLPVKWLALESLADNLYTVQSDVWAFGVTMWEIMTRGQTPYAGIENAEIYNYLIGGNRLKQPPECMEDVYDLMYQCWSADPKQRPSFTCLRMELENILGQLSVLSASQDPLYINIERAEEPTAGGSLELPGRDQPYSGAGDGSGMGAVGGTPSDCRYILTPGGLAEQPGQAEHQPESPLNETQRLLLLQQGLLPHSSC
# [2] = biological target: T2, Met (Homo sapiens, UniProt P08581); assay: LanthaScreen Eu kinase binding assay, Met; settings: Tracer 236, read-out: cMet kinase binding activity (Kd)
# T2 construct: purchased Life Technologies
# [3] = biological target: T3, Axl (Homo sapiens, UniProt P30530); assay: LanthaScreen Eu kinase binding assay, Axl; settings: Tracer 236
# T3 construct: purchased Life Technologies
# T3 sequence (P30530 26-894): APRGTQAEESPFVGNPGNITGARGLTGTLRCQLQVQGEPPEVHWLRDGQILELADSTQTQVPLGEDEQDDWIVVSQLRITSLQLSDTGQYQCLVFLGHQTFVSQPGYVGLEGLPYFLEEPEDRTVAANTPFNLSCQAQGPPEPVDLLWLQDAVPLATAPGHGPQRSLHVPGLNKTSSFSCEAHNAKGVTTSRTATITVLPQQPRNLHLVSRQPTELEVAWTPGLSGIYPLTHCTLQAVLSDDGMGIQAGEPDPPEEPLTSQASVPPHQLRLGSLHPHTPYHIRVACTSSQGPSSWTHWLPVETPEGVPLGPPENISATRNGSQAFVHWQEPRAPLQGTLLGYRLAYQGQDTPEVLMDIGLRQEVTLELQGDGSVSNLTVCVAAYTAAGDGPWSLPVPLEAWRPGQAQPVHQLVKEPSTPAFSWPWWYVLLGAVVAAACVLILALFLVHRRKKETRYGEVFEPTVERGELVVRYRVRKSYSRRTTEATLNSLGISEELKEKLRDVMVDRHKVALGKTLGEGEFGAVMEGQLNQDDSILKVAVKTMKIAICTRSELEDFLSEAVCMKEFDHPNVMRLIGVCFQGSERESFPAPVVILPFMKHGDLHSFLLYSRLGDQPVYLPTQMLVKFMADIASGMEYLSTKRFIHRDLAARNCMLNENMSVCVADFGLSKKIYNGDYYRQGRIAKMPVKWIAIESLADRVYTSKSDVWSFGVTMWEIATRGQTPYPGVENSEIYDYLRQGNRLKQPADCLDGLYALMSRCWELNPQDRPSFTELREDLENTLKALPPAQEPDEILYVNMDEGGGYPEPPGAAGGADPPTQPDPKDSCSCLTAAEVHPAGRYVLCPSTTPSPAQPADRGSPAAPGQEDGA
# T2 sequence (P08581 25-1390): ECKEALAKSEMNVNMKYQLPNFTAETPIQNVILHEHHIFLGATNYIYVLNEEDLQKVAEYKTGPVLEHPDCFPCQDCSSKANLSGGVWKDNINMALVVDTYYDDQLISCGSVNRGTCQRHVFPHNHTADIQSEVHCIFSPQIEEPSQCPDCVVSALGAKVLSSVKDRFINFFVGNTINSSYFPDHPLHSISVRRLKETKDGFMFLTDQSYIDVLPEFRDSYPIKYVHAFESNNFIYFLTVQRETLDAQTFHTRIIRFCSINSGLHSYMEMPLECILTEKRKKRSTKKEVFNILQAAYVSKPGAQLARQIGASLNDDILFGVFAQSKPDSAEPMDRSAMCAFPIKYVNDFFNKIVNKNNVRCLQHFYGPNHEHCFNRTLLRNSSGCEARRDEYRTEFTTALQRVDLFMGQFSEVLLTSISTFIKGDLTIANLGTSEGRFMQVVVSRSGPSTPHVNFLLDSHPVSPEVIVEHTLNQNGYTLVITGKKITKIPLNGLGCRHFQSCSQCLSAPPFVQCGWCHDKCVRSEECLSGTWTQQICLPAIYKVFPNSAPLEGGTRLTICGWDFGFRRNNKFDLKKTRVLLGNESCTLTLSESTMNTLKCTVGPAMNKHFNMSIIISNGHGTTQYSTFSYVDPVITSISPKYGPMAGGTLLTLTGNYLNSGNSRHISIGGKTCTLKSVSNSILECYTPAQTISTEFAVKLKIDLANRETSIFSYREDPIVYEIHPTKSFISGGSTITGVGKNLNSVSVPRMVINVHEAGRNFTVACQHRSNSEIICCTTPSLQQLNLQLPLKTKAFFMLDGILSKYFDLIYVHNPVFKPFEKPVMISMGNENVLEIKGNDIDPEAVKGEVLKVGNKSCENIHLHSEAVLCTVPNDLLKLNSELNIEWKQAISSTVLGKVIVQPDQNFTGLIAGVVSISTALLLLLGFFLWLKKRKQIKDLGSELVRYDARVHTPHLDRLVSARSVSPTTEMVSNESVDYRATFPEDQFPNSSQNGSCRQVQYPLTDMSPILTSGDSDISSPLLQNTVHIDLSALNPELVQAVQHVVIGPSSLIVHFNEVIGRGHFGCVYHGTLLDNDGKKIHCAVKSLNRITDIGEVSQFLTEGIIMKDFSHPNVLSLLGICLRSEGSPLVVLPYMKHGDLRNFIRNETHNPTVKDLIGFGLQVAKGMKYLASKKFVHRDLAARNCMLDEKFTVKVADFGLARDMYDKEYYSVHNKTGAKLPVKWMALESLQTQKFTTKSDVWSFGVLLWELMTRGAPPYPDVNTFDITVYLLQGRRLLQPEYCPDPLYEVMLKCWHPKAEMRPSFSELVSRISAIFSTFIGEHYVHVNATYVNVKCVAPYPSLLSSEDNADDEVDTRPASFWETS
SMILES,pKd [1],pKd [2],pKd [3]
CCOc1cn(C(C)CC#N)nc1C(=O)Nc1ccc(Oc2ccnc3cc(OC)c(OC)cc23)cn1 (stereo not drawn) [Compound 81],6.00 to 7.00,6.00 to 7.00,> 7.00
CCOc1cn(-c2ccc(F)cc2)nc1C(=O)Nc1ccc(Oc2ccnc3cc(OC)c(OC)cc23)cn1 [Compound 89],> 7.00,> 7.00,> 7.00
CCOc1cn(CCC#N)nc1C(=O)Nc1ccc(Oc2ccnc3cc(OC)c(OC)cc23)cn1 [Compound 80],6.00 to 7.00,6.00 to 7.00,> 7.00
CCOc1cn(CCOC(F)F)nc1C(=O)Nc1ccc(Oc2ccnc3cc(OC)c(OC)cc23)cn1 [Compound 86],6.00 to 7.00,> 7.00,> 7.00
CCOc1cn(C2CCOC2)nc1C(=O)Nc1ccc(Oc2ccnc3cc(OC)c(OC)cc23)cn1 (stereo not drawn) [Compound 76],> 7.00,6.00 to 7.00,> 7.00
CCOc1cn(-c2cccnc2)nc1C(=O)Nc1ccc(Oc2ccnc3cc(OC)c(OC)cc23)cc1F [Compound 85],6.00 to 7.00,> 7.00,> 7.00

# Now from value to compound:
pKd [1],pKd [2],pKd [3],SMILES
> 7.00,> 7.00,> 7.00,CCOc1cn(-c2ccc(Cl)cc2C)nc1C(=O)Nc1ccc(Oc2ccnc3cc(OC)c(OC)cc23)cn1 [Compound 87]
> 7.00,> 7.00,> 7.00,CCOc1cn(-c2c(C)cc(OC)cc2C)nc1C(=O)Nc1ccc(Oc2ccnc3cc(OC)c(OC)cc23)cn1 [Compound 92]
> 7.00,> 7.00,> 7.00,CCOc1cn(-c2cccnn2)nc1C(=O)Nc1ccc(Oc2ccnc3cc(OC)c(OC)cc23)cn1 [Compound 5]
6.00 to 7.00,> 7.00,> 7.00,CCOc1cn(-c2ncc(N)cn2)nc1C(=O)Nc1ccc(Oc2ccnc3cc(OC)c(OC)cc23)cn1 [Compound 93]
> 7.00,> 7.00,> 7.00,CCOc1cn(-c2ccc(F)cc2C)nc1C(=O)Nc1ccc(Oc2ccnc3cc(OC)c(OC)cc23)c(Cl)c1 [Compound 82]
> 7.00,> 7.00,> 7.00,CCOc1cn(-c2cnccc2C)nc1C(=O)Nc1ccc(Oc2ccnc3cc(OC)c(OC)cc23)cn1 [Compound 79]
> 7.00,> 7.00,> 7.00,CCOc1cn(C2CCCC2)nc1C(=O)Nc1ccc(Oc2ccnc3cc(OC)c(OC)cc23)cn1 [Compound 3]
6.00 to 7.00,> 7.00,> 7.00,CCOc1cn(-c2ccccn2)nc1C(=O)Nc1ccc(Oc2ccnc3cc(OC)c(OC)cc23)cn1 [Compound 4]
